{
  "source": "patent US20220354949A1",
  "about": "“NOVEL COMPOUNDS” (XENIOPRO GmbH, priority 2018, published 2022)",
  "type_in_all_cases": "cell-based",
  "key": {"[1]": {"system": "HL-60 cells (human acute myeloid leukemia cells)", "assay": "Proliferation assay (alamarBlue) with HL-60 cells", "excerpt": "(§1) The antiproliferative activities of compounds falling under formula (Ia), (Ib) and (Ic), respectively, were investigated on cells or cell lines originating from a disorder of the haematopoietic system, including the myeloid cell compartment and the lymphoid cell compartment (T-cells and B-cells), the neuroendocrine system, the cervix, the breast, the ovaries, the lung, the gastrointestinal tract, and the mucosal epithelium, as well as from the skin epithelium and from the muscle. To this end, HL-60 cells, NB-4 cells, HH cells, RPMI-8402 cells, TANOUE cells, TT cells, HeLa cells, MDA-MB-231 cells, FU-OV-1 cells, LOU-NH91 cells, 23132/87 cells, CAL-27 cells, BHY cells, SCC-25 cells, A-431 cells, human primary epidermal keratinocytes (HPEK), and C2C12 cells were seeded into 96-well plates suitable for fluorescence assays (CORNING #3598) at following initial cell numbers: 1000 cells per well for HL-60; 1000 cells per well for NB-4; 5000 cells per well for HH; 5000 cells per well for RPMI-8402; 1500 cells per well for TANOUE; 9000 cells per well for TT; 2000 cells per well for HeLa; 3000 cells per well for MDA-MB-231; 3000 cells per well for FU-OV-1; 4000 cells per well for LOU-NH91; 2000 cells per well for 23132/87; 2000 cells per well for CAL-27; 1500 cells per well for BHY; 1500 cells per well for SCC-25; 700 cells per well for A-431; 1000 cells per well for HPEK; 500 cells per well for C2C12. The cells were treated with compounds at indicated final concentrations (diluted from the 1000× stock-solutions in DMSO to a final DMSO concentration of 0.1% v/v in H2O (Water For Injection, WFI, Fisherscientific #10378939)) or with the empty carrier DMSO at 0.1% v/v as control for 5 days. At day 5 after starting the treatments the cells were subjected to the alamarBlue® Proliferation Assay (Bio-Rad Serotec GmbH, BUF012B) according to the protocol of the manufacturer. The readout was taken with a multi-well plate-reader in the fluorescence mode with applying a filter for excitation at 560 nm (band width 10 nm) and for emission at 590 nm (band width 10 nm). Control treatments for growth inhibition with commercial compounds such as Methotrexate (MTREX) and Resveratrol (RES) were included on every plate. Some of the test compounds of the present invention were obtained and applied as their salts. According cases are indicated in the column “Specification” in Table 55 to Table 92 and by their sum formula in Table 93.\n(§2) The assays were performed in duplicate or more replicates of independent single experiments each containing a six-fold replicate for every condition. For every individual plate, the measured fluorescence intensity values of the conditions with compound treatment were normalized against the corresponding equally weighted arithmetic mean of the fluorescence intensity values of the six DMSO treated control wells in order to obtain the relative values to a baseline level of 1.0.\n(§3) Two independent outlier analyses were performed according to the methods by Peirce and Chauvenet (Ross, Journal of Engineering Technology 2003, 1-12). Outliers confirmed by at least one of the methods were excluded from the calculations but not more than one value out of six per compound within a single experiment. The weighted arithmetic mean (here abbreviated as AVEw) for each compound was calculated from the normalized values over all independent replicates of the single experiments comprising the six replicates each. The corresponding standard deviation for the weighted arithmetic mean was calculated according to the method described by Bronstein et al. (Bronstein, Semendjajew, Musiol, Müihlig, Taschenbuch der Mathematik, 5th edition 2001 (German), publisher: Verlag Harri Deutsch, Frankfurt am Main and Thun) and was combined with the Gauß' error propagation associated with the performed calculation for the normalization. The resulting standard deviation is herein referred to as “combined standard deviation”. […]"}, "[2]": {"system": "CAL-27 cells (human tongue squamous cell carcinoma cells)", "assay": "Proliferation assay (alamarBlue) with CAL-27 cells", "settings": "for Activity Range (weighted arithmetic mean AVEw of normalized fluorescence intensity, relative to DMSO basis level 1.0): 20 μM; for Activity Range (weighted arithmetic mean of normalized fluorescence intensity, relative to DMSO basis level 1.0): control at 40 μM", "excerpt": "as §1, §2, §3"}, "[3]": {"system": "TANOUE cells (human B cell leukemia cells)", "assay": "Proliferation assay (alamarBlue) with TANOUE cells", "settings": "for activity at 20 µM: Table 63 (novel compounds), read-out: Activity Range: weighted arithmetic mean (AVEw) of normalized fluorescence intensity relative to DMSO basis level 1.0", "excerpt": "as §1, §2, §3"}, "[4]": {"system": "BHY cells (human oral squamous cell carcinoma cells)", "assay": "Proliferation assay (alamarBlue) with BHY cells", "design": "key: fluorescence relative to mean of DMSO control wells = 1.0", "settings": "for Activity Range (weighted arithmetic mean AVEw of normalized fluorescence intensity, relative to DMSO basis level 1.0): 20 μM; for Activity Range (weighted arithmetic mean of normalized fluorescence intensity, relative to DMSO basis level 1.0): control at 40 μM", "excerpt": "as §1, §2, §3"}, "[5]": {"settings": "20 μM, relative to DMSO basis level 1.0, Table 55 (novel compounds)"}, "[6]": {"settings": "20 μM, relative to DMSO basis level 1.0, Table 56 (compounds disclosed in PCT/EP2018/054686)"}, "[7]": {"settings": "Table 78 (compounds disclosed in PCT/EP2018/054686)"}, "[8]": {"settings": "Homo sapiens, B-cell, compound at 20 μM"}, "[9]": {"settings": "compound at 20 μM, Table 64 (compounds of PCT/EP2018/054686)"}, "[10]": {"settings": "Table 80 (compounds disclosed in PCT/EP2018/054686)"}, "[11]": {"settings": "Table 81 (compounds disclosed in PCT/EP2018/054686)"}},
  "data": [
    {"smiles": "CN(Cc1cnc2nc(N)nc(N)c2n1)c1ccc(C(=O)N[C@@H](CCC(=O)O)C(=O)O)cc1", "note": "[MTREX, Methotrexate]", "values": [
      {"measurement": "Activity Range: weighted arithmetic mean (AVEw) of normalized fluorescence intensity, proliferation assay with HL-60 cells", "setting": "[1]; [5]", "result": "0.1 ± 0.1"},
      {"measurement": "Activity Range: weighted arithmetic mean (AVEw) of normalized fluorescence intensity, proliferation assay with HL-60 cells", "setting": "[1]; [6]", "result": "0.1 ± 0.1"},
      {"measurement": "Activity Range (weighted arithmetic mean AVEw of normalized fluorescence intensity, relative to DMSO basis level 1.0)", "setting": "[2]; Table 77 (novel compounds)", "result": "0.1 ± 0.0"},
      {"measurement": "Activity Range (weighted arithmetic mean AVEw of normalized fluorescence intensity, relative to DMSO basis level 1.0)", "setting": "[2]; [7]", "result": "0.1 ± 0.0"},
      {"measurement": "activity at 20 µM", "setting": "[3]; [8]", "result": 10, "unit": "%"},
      {"measurement": "Activity Range: weighted arithmetic mean (AVEw) of normalized fluorescence intensity relative to DMSO basis level 1.0", "setting": "[3]; [9]", "result": "0.1 ± 0.0"},
      {"measurement": "Activity Range (weighted arithmetic mean AVEw of normalized fluorescence intensity, relative to DMSO basis level 1.0)", "setting": "[4]; Table 79 (novel compounds)", "result": "0.3 ± 0.0"},
      {"measurement": "Activity Range (weighted arithmetic mean AVEw of normalized fluorescence intensity, relative to DMSO basis level 1.0)", "setting": "[4]; [10]", "result": "0.3 ± 0.0"},
      {"measurement": "Activity Range (weighted arithmetic mean AVEw of normalized fluorescence intensity, relative to DMSO basis level 1.0)", "setting": "[4]; [11]", "result": "0.3 ± 0.0"}
    ]},
    {"smiles": "Oc1ccc(C=Cc2cc(O)cc(O)c2)cc1", "note": "[RES, Resveratrol]", "values": [
      {"measurement": "Activity Range: weighted arithmetic mean (AVEw) of normalized fluorescence intensity, proliferation assay with HL-60 cells", "setting": "[1]; [5]", "result": "0.4 ± 0.1"},
      {"measurement": "Activity Range: weighted arithmetic mean (AVEw) of normalized fluorescence intensity, proliferation assay with HL-60 cells", "setting": "[1]; [6]", "result": "0.4 ± 0.1"},
      {"measurement": "Activity Range: weighted arithmetic mean (AVEw) of normalized fluorescence intensity, proliferation assay with HL-60 cells", "setting": "[1]; control at 40 μM, relative to DMSO basis level 1.0, Table 55", "result": "0.2 ± 0.1"},
      {"measurement": "Activity Range: weighted arithmetic mean (AVEw) of normalized fluorescence intensity, proliferation assay with HL-60 cells", "setting": "[1]; control at 40 μM, relative to DMSO basis level 1.0, Table 56", "result": "0.2 ± 0.1"},
      {"measurement": "Activity Range (weighted arithmetic mean AVEw of normalized fluorescence intensity, relative to DMSO basis level 1.0)", "setting": "[2]; Table 77 (novel compounds)", "result": "0.8 ± 0.1"},
      {"measurement": "Activity Range (weighted arithmetic mean AVEw of normalized fluorescence intensity, relative to DMSO basis level 1.0)", "setting": "[2]; [7]", "result": "0.8 ± 0.1"},
      {"measurement": "Activity Range (weighted arithmetic mean of normalized fluorescence intensity, relative to DMSO basis level 1.0)", "setting": "[2]; Table 77", "result": "0.4 ± 0.3"},
      {"measurement": "Activity Range (weighted arithmetic mean of normalized fluorescence intensity, relative to DMSO basis level 1.0)", "setting": "[2]; Table 78", "result": "0.4 ± 0.3"},
      {"measurement": "activity at 20 µM", "setting": "[3]; [8]", "result": 10, "unit": "%"},
      {"measurement": "activity at 40 µM", "setting": "[3]; Homo sapiens, B-cell, control at 40 μM, Table 63, read-out: Activity Range: weighted arithmetic mean (AVEw) of normalized fluorescence intensity relative to DMSO basis level 1.0", "result": 0, "unit": "%"},
      {"measurement": "Activity Range: weighted arithmetic mean (AVEw) of normalized fluorescence intensity relative to DMSO basis level 1.0", "setting": "[3]; [9]", "result": "0.1 ± 0.0"},
      {"measurement": "Activity Range: weighted arithmetic mean (AVEw) of normalized fluorescence intensity relative to DMSO basis level 1.0", "setting": "[3]; control at 40 μM, Table 64", "result": "0.0 ± 0.0"},
      {"measurement": "Activity Range (weighted arithmetic mean AVEw of normalized fluorescence intensity, relative to DMSO basis level 1.0)", "setting": "[4]; [10]", "result": "0.5 ± 0.1"},
      {"measurement": "Activity Range (weighted arithmetic mean AVEw of normalized fluorescence intensity, relative to DMSO basis level 1.0)", "setting": "[4]; [11]", "result": "0.5 ± 0.1"},
      {"measurement": "Activity Range (weighted arithmetic mean of normalized fluorescence intensity, relative to DMSO basis level 1.0)", "setting": "[4]; Table 79", "result": "0.3 ± 0.0"},
      {"measurement": "Activity Range (weighted arithmetic mean of normalized fluorescence intensity, relative to DMSO basis level 1.0)", "setting": "[4]; Table 80", "result": "0.3 ± 0.0"},
      {"measurement": "Activity Range (weighted arithmetic mean of normalized fluorescence intensity, relative to DMSO basis level 1.0)", "setting": "[4]; Table 81", "result": "0.3 ± 0.0"}
    ]}
  ]
}
